Assay results from the NIST ThermoML archive (doi:10.1016/j.fluid.2017.12.031).
Several values for one entry are separate records, joined by “and”; a condition that tells them apart may be missing. Identical values can stand only once. ± gives the expanded uncertainty stated by the source.

Assays:
[1] = 313.15 K; Liquid; Closed cell (Static) method
[2] = excess molar enthalpy (molar enthalpy of mixing); xn = mol fraction of the nth substance listed; conditions: 101 kPa, Liquid, Flow calorimetry

Cc1ccc(C)c(C)c1 [1,2,4-trimethylbenzene]
Conditions | vapor or sublimation pressure [kPa]
[1] | 0.73 ± 0.016

Cc1ccc(C)c(C)c1 [1,2,4-trimethylbenzene] + CCCC(C)O
excess molar enthalpy [kcal/mol], [2]
Conditions | 298.15 K | 313.15 K
x2 = 0 | 0 ± 0.000239 | 0 ± 0.000239
x2 = 0.0499 | 0.144 ± 0.00191 | 0.149 ± 0.00198
x2 = 0.0987 | – | 0.237 ± 0.00311
x2 = 0.1012 | 0.218 ± 0.00287 | –
x2 = 0.149 | 0.264 ± 0.00335 | 0.295 ± 0.00382
x2 = 0.1982 | – | 0.334 ± 0.0043
x2 = 0.2006 | 0.297 ± 0.00382 | –
x2 = 0.2487 | 0.322 ± 0.00406 | –
x2 = 0.2509 | – | 0.361 ± 0.00454
x2 = 0.298 | 0.338 ± 0.0043 | –
x2 = 0.3002 | – | 0.382 ± 0.00478
x2 = 0.3485 | 0.35 ± 0.0043 | –
x2 = 0.3507 | – | 0.392 ± 0.00502
x2 = 0.3979 | 0.358 ± 0.00454 | 0.399 ± 0.00502
x2 = 0.4482 | 0.36 ± 0.00454 | –
x2 = 0.4504 | – | 0.4 ± 0.00502
x2 = 0.4996 | 0.356 ± 0.00454 | 0.397 ± 0.00502
x2 = 0.5476 | – | 0.386 ± 0.00478
x2 = 0.5496 | 0.349 ± 0.0043 | –
x2 = 0.6005 | – | 0.369 ± 0.00454
x2 = 0.6006 | 0.334 ± 0.0043 | –
x2 = 0.6482 | – | 0.346 ± 0.0043
x2 = 0.6502 | 0.313 ± 0.00382 | –
x2 = 0.6987 | – | 0.318 ± 0.00406
x2 = 0.6988 | 0.289 ± 0.00359 | –
x2 = 0.7479 | – | 0.285 ± 0.00359
x2 = 0.748 | 0.259 ± 0.00335 | –
x2 = 0.7978 | – | 0.243 ± 0.00311
x2 = 0.7979 | 0.22 ± 0.00287 | –
x2 = 0.8481 | – | 0.194 ± 0.00239
x2 = 0.8482 | 0.176 ± 0.00227 | –
x2 = 0.8989 | – | 0.138 ± 0.00182
x2 = 0.899 | 0.124 ± 0.00165 | –
x2 = 0.9501 | – | 0.0718 ± 0.00103
x2 = 0.9502 | 0.0647 ± 0.000932 | –

Cc1ccc(C)c(C)c1 [1,2,4-trimethylbenzene] + CCCCCO
excess molar enthalpy [kcal/mol], [2]
Conditions | 298.15 K | 313.15 K
x2 = 0 | 0 ± 0.000239 | 0 ± 0.000239
x2 = 0.0503 | 0.124 ± 0.00167 | 0.139 ± 0.00186
x2 = 0.0995 | 0.175 ± 0.00225 | 0.207 ± 0.00263
x2 = 0.15 | 0.204 ± 0.00263 | 0.248 ± 0.00311
x2 = 0.1995 | 0.22 ± 0.00287 | 0.273 ± 0.00335
x2 = 0.2501 | 0.233 ± 0.00287 | –
x2 = 0.2502 | – | 0.289 ± 0.00359
x2 = 0.2997 | 0.241 ± 0.00311 | 0.297 ± 0.00382
x2 = 0.3481 | 0.243 ± 0.00311 | 0.3 ± 0.00382
x2 = 0.3998 | 0.24 ± 0.00311 | 0.3 ± 0.00382
x2 = 0.4481 | 0.234 ± 0.00287 | –
x2 = 0.4482 | – | 0.295 ± 0.00359
x2 = 0.4995 | 0.223 ± 0.00287 | 0.283 ± 0.00359
x2 = 0.5495 | 0.21 ± 0.00263 | –
x2 = 0.5496 | – | 0.268 ± 0.00335
x2 = 0.5985 | 0.194 ± 0.00239 | –
x2 = 0.5986 | – | 0.25 ± 0.00311
x2 = 0.6482 | 0.175 ± 0.00225 | 0.227 ± 0.00287
x2 = 0.6985 | 0.153 ± 0.00198 | –
x2 = 0.6986 | – | 0.203 ± 0.00263
x2 = 0.7494 | 0.129 ± 0.0017 | –
x2 = 0.7495 | – | 0.173 ± 0.00222
x2 = 0.7991 | 0.104 ± 0.00139 | 0.142 ± 0.00184
x2 = 0.8492 | 0.0777 ± 0.00108 | 0.108 ± 0.00143
x2 = 0.8997 | 0.0527 ± 0.000765 | 0.0729 ± 0.001
x2 = 0.9505 | 0.0253 ± 0.000454 | 0.0354 ± 0.000574

C=CCCCC [hex-1-ene]
Conditions | vapor or sublimation pressure
[1] | 44.91 ± 0.16 kPa and 44.95 ± 0.16 kPa

C=CCCCC [hex-1-ene] + CCCC(C)O
[2], x2 = 0
Conditions | excess molar enthalpy [kcal/mol]
298.15 K | 0 ± 0.000239
313.15 K | 0 ± 0.000239

C=CCCCC [hex-1-ene] + CCCCCO
excess molar enthalpy [kcal/mol], [2]
Conditions | 298.15 K | 313.15 K
x2 = 0 | 0 ± 0.000239 | 0 ± 0.000239
x2 = 0.0506 | – | 0.121 ± 0.00163
x2 = 0.0507 | 0.095 ± 0.00129 | –
x2 = 0.1005 | – | 0.159 ± 0.00206
x2 = 0.1006 | 0.119 ± 0.00155 | –
x2 = 0.152 | – | 0.179 ± 0.00229
x2 = 0.1522 | 0.134 ± 0.00174 | –
x2 = 0.2027 | – | 0.192 ± 0.00239
x2 = 0.203 | 0.143 ± 0.00186 | –
x2 = 0.2528 | – | 0.195 ± 0.00239
x2 = 0.2531 | 0.148 ± 0.00191 | –
x2 = 0.3021 | – | 0.198 ± 0.00263
x2 = 0.3022 | 0.151 ± 0.00196 | –
x2 = 0.3526 | – | 0.193 ± 0.00239
x2 = 0.353 | 0.15 ± 0.00194 | –
x2 = 0.4026 | – | 0.19 ± 0.00239
x2 = 0.403 | 0.146 ± 0.00189 | –
x2 = 0.4519 | – | 0.183 ± 0.00234
x2 = 0.4523 | 0.138 ± 0.00179 | –
x2 = 0.5026 | – | 0.172 ± 0.0022
x2 = 0.503 | 0.129 ± 0.0017 | –
x2 = 0.5524 | – | 0.159 ± 0.00206
x2 = 0.5529 | 0.118 ± 0.00155 | –
x2 = 0.6035 | – | 0.144 ± 0.00186
x2 = 0.604 | 0.106 ± 0.00141 | –
x2 = 0.6519 | – | 0.127 ± 0.00167
x2 = 0.6523 | 0.0912 ± 0.00122 | –
x2 = 0.7019 | 0.0776 ± 0.00105 | 0.109 ± 0.00143
x2 = 0.7526 | 0.0629 ± 0.000884 | 0.0888 ± 0.0012
x2 = 0.8008 | 0.0478 ± 0.000693 | –
x2 = 0.8025 | – | 0.0681 ± 0.000956
x2 = 0.8482 | 0.0348 ± 0.00055 | –
x2 = 0.8517 | – | 0.0505 ± 0.000741
x2 = 0.9019 | – | 0.0316 ± 0.000502
x2 = 0.902 | 0.0208 ± 0.000382 | –
x2 = 0.9513 | 0.00908 ± 0.000263 | 0.0139 ± 0.000311

CCCCCO [pentan-1-ol]
Conditions | vapor or sublimation pressure
[1] | 0.913 ± 0.018 kPa and 0.918 ± 0.018 kPa

CCCCCO [pentan-1-ol] + C=CCCCC
[2], x1 = 1
Conditions | excess molar enthalpy [kcal/mol]
298.15 K | 0 ± 0.000239
313.15 K | 0 ± 0.000239

CCCCCO [pentan-1-ol] + Cc1ccc(C)c(C)c1
[2], x1 = 1
Conditions | excess molar enthalpy [kcal/mol]
298.15 K | 0 ± 0.000239
313.15 K | 0 ± 0.000239

CCCC(C)O (configuration not stated) [pentan-2-ol]
Conditions | vapor or sublimation pressure
[1] | 2.281 ± 0.023 kPa and 2.268 ± 0.023 kPa

CCCC(C)O (configuration not stated) [pentan-2-ol] + C=CCCCC
excess molar enthalpy [kcal/mol], [2]
Conditions | 298.15 K | 313.15 K
x1 = 0.05 | – | 0.141 ± 0.00186
x1 = 0.0503 | 0.117 ± 0.00158 | –
x1 = 0.0999 | 0.158 ± 0.00203 | 0.196 ± 0.00263
x1 = 0.1511 | 0.183 ± 0.00234 | –
x1 = 0.1512 | – | 0.229 ± 0.00287
x1 = 0.2015 | 0.202 ± 0.00263 | –
x1 = 0.2017 | – | 0.254 ± 0.00311
x1 = 0.2513 | 0.216 ± 0.00263 | –
x1 = 0.2516 | – | 0.266 ± 0.00335
x1 = 0.3027 | 0.225 ± 0.00287 | –
x1 = 0.3028 | – | 0.277 ± 0.00359
x1 = 0.3512 | 0.23 ± 0.00287 | –
x1 = 0.3513 | – | 0.282 ± 0.00359
x1 = 0.4032 | 0.234 ± 0.00287 | –
x1 = 0.4034 | – | 0.282 ± 0.00359
x1 = 0.4509 | – | 0.278 ± 0.00359
x1 = 0.4525 | 0.234 ± 0.00287 | –
x1 = 0.5014 | – | 0.271 ± 0.00335
x1 = 0.503 | 0.23 ± 0.00287 | –
x1 = 0.5513 | – | 0.262 ± 0.00335
x1 = 0.5529 | 0.222 ± 0.00287 | –
x1 = 0.6005 | – | 0.248 ± 0.00311
x1 = 0.6018 | 0.21 ± 0.00263 | –
x1 = 0.6523 | 0.194 ± 0.00239 | 0.227 ± 0.00287
x1 = 0.702 | 0.175 ± 0.00225 | 0.205 ± 0.00263
x1 = 0.751 | 0.151 ± 0.00196 | 0.18 ± 0.00229
x1 = 0.8004 | 0.123 ± 0.0016 | –
x1 = 0.8012 | – | 0.149 ± 0.00194
x1 = 0.85 | 0.0935 ± 0.00127 | –
x1 = 0.8506 | – | 0.115 ± 0.00153
x1 = 0.9007 | 0.0574 ± 0.000813 | –
x1 = 0.9012 | – | 0.0742 ± 0.00103
x1 = 0.9507 | 0.0268 ± 0.000454 | –
x1 = 0.9509 | – | 0.0371 ± 0.000598
x1 = 1 | 0 ± 0.000239 | 0 ± 0.000239

CCCC(C)O (configuration not stated) [pentan-2-ol] + Cc1ccc(C)c(C)c1
[2], x1 = 1
Conditions | excess molar enthalpy [kcal/mol]
298.15 K | 0 ± 0.000239
313.15 K | 0 ± 0.000239
